According to US7101863B2, “Pharmaceutical compositions with wound healing or anti-complementary activity comprising a dextran derivative” (Biodex, priority 2000, dated 2006):

Columns and labels:
[1] = tested on: gastric mucosa; experiment: In-vivo gastric healing, macroscopic impairment of the gastric mucosa; design: species or system Sprague-Dawley rats; key: 0: Normal mucosa.; +: Small superficial hemorrhagic striae.; ++: Short and broad superficial hemorrhagic striae.; +++: Long and broad superficial hemorrhagic striae.; ++++: Perforations; conditions: oral, dextran derivative and dextran T40 50 μg/kg, prostaglandin E2 10 μg/kg
Experimental: The animals employed are 12-week-old male Sprague-Dawley rats weighing from 200 to 250 g. Three batches of animals are used, with each consisting of 4 animals:
the first batch is treated with a dextran derivative of the general formula DMCaBbSuc in which a=0.75, b=0.25 and c=0.15, at the rate of 50 μg/kg,
the second batch serves as the control, with the animals being treated with a native dextran T40 (Pharmacia Fine Chemical; weight average molecular mass Mw: 37 500 g/mol; Mw/Mn: 1.7, with Mn representing the number average mass), at the rate of 50 μg/kg,
This batch therefore corresponds to a positive control.
The dextran derivative, the native dextran and the prostaglandin E2 are dissolved in physiological saline and administered orally to the animals.
The animals are sacrificed at different stages of healing, namely on D2, D4, D7 and D14, with the healing process being considered on days from the date on which the gastric irritation is induced. The gastric mucosa is recovered with a view to carrying out two studies:
quantification of the impairment of the gastric mucosa,
Table V represents a compilation of the results of the macroscopic study of the inflammatory reaction in the gastric mucosa, with the study being effected in accordance with the following scale: […]

[2] = tested on: right eye; experiment: In-vivo ocular healing after sodium hydroxide burn, histological studies; design: species or system New Zealand white rabbits; conditions: 100 μl three times daily; FGF-2 0.1 ng and/or dextran derivative 50 μg/ml
Experimental: 20 New Zealand white rabbits (10 males and 10 females) are used, with the rabbits being 1 year old and weighing from 2.5 to 3 kg; a 5.5 mm filter soaked in a 1N solution of sodium hydroxide was placed for 60 seconds on the right eye of these rabbits, which were then divided up into 4 groups of 5 animals each:
the first group is treated three times daily with 100 μl of a solution containing 0.1 ng of FGF-2 (Fibroblast Growth Factor-2);
the second group is treated three times daily with 100 μl of an isotonic solution containing 50 μg of a dextran derivative/ml of the general formula DMCaBbSuc in which a=0.75, b=0.31 and c=0.34;
the third group is treated three times daily with 100 μl of a solution containing 0.1 ng of FGF-2 and 50 μg of the above-mentioned dextran derivative/ml;
the fourth group (control group) is treated three times daily with 100 μl of a PBS buffer solution.
The speed of ocular healing in the four groups of animals is compared by means of histological studies carried out on days D1, D2, D4, D6 and D8.

[3] = tested on: complement system; experiment: In-vivo anticomplementary action, hemolytic CH50 assay on rat serum; design: species or system Sprague-Dawley rats; conditions: injection with Sephadex G25 20 μg and 50 μg of test substance
Source text: The anticomplementary action is studied by means of a hemolytic or CH50 assay, in accordance with a protocol in which the serum of the rats, withdrawn at different time intervals, is activated by sheep erythrocytes which are sensitized by rabbit antibodies directed against sheep red blood cells (EA). By definition, one CH50 unit corresponds to the concentration of complement proteins (contained in one milliliter of serum) which is capable of inducing the hemolysis of 50% of 2×10^7 activated EAs in a reaction medium where the volume, the temperature and the reaction time are kept constant. The number of hemolytic sites per cell is calculated.

CCCCC[C@H](O)/C=C/[C@H]1[C@H](O)CC(=O)[C@@H]1C/C=C\CCCC(=O)O [Prostaglandin E2, prostaglandin E2]
Impairment of the gastric mucosa ([1]; D2): ++
Impairment of the gastric mucosa ([1]; D4): +
Impairment of the gastric mucosa ([1]; D7): +
Impairment of the gastric mucosa ([1]; D14): 0

FGF-2: Fibroblast Growth Factor-2
Duration of ocular healing (mean for each group of animals) [2]: 5 days

native dextran
Inhibition of the activation of the complement (CH50) [3]: did not have any effect
